Values after ≈ are worked out from the molar mass of the structure shown.

The data set is described as follows: Kinetic aqueous solubility of the compound at pH 6.8 by shake flask assay. In kind it is physicochemical. The note with it: read-out: Kinetic_solubility.

As to `C=CC(=O)N(C)CCOc1c(N)ncnc1-c1ccc(CN2CCN(CC(C)C)CC2=O)c(C)c1`, the solubility kinetic is 49 µg/mL (≈ 102 µM).

Source of the values: ChEMBL document CHEMBL5131445, “Optimization of a novel piperazinone series as potent selective peripheral covalent BTK inhibitors” (Bioorg Med Chem Lett, 2022).
